BindingDB's records for doi:10.1038/nchembio.481 (CGI Pharmaceuticals, 2011)

Target: Tyrosine-protein kinase BTK (Homo sapiens, UniProt Q06187)
Experiment: Btk Kinase Assay
Conditions: pH 7.5; 23 °C
Source text: Biochemical assay using Lanthascreen (human, full-lenght, C-terminal v5-His6 expressed in Sf9 cell) assay from Invitrogen.

Tyrosine-protein kinase BTK, sequence (Q06187 whole entry): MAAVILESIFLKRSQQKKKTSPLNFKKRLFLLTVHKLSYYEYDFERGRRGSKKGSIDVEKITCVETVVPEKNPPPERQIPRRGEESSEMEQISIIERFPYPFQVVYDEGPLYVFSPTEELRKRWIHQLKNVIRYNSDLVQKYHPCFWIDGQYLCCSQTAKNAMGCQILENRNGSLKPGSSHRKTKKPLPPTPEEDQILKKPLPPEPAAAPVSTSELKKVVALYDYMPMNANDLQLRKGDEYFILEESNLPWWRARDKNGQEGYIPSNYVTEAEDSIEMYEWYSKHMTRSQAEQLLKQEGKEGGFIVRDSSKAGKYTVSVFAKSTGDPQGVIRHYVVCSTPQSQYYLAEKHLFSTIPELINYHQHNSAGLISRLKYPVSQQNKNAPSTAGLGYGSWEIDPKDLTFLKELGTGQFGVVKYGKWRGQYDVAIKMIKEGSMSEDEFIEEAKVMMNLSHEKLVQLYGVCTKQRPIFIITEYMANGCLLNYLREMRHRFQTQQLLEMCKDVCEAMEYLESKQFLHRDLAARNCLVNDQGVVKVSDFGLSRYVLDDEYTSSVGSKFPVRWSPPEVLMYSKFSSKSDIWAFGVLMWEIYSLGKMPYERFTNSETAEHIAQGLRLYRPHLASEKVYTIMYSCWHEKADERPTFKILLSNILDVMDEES

SMILES | IC50 [µM]
Cc1c(NC(=O)c2cccc(C(C)(C)C)c2)cccc1-c1cn(C)c(=O)c(Nc2ccc(C(=O)N3CCOCC3)cc2)n1 [3-(tert-Butyl)-N-(2-methyl-3-(4-methyl-6-((4-(morpholine-4-carbonyl)phenyl)amino)-5-oxo-4,5-dihydropyrazin-2-yl)phenyl)benzamide, 6] | 3.14
Cc1c(NCc2ccc(C(C)(C)C)cc2)cccc1-c1cn(C)c(=O)c(Nc2ccc(C(=O)N3CCOCC3)cc2)n1 [5-(3-((4-(tert-Butyl)benzyl)amino)-2-methylphenyl)-1-methyl-3-((4-(morpholine-4-carbonyl)phenyl)amino)pyrazin-2(1H)-one, 5] | 9.06
Cc1c(N)cccc1-c1cn(C)c(=O)c(Nc2ccc(C(=O)N3CCOCC3)cc2)n1 [5-(3-Amino-2-methylphenyl)-1-methyl-3-((4-(morpholine-4-carbonyl)phenyl)amino)pyrazin-2(1H)-one, 3] | 5.44
Cc1c(NC(=O)c2ccc(C(C)(C)C)nc2)cccc1-c1cn(C)c(=O)c(Nc2ccc(C(=O)N3CCOCC3)cc2)n1 [6-(tert-Butyl)-N-(2-methyl-3-(4-methyl-6-((4-(morpholine-4-carbonyl)phenyl)amino)-5-oxo-4,5-dihydropyrazin-2-yl)phenyl)nicotinamide, 7] | 0.65
CC(=O)Nc1cccc(-c2cn(C)c(=O)c(Nc3ccc(C(=O)N4CCOCC4)cc3)n2)c1C [CID46942382] | 2.69
